In patent US8906908B2, “Hydroxybupropion analogues for treating drug dependence” (priority 2010, dated 2014):
Read-outs that look alike come from different tables or passages of the source.

Key:
[1] = system: Male Institute of Cancer Research (ICR) mice; assay: Tail-flick test, blockade of nicotine-induced antinociception; type: in vivo; details: mice, pretreatment 15 min before nicotine 2.5 mg/kg s.c., tested 5 min after nicotine; for ED50: Mus musculus, 5 min, read-out: AD50 Tail-flick
Text: (§1) Animals: Male Institute of Cancer Research (ICR) mice (weighing 20-25 g) obtained from Harlan (Indianapolis, Ind.) were used throughout the study. Animals were housed in an Association for Assessment and Accreditation of Laboratory Animal Care-approved facility, were placed in groups of six, and had free access to food and water. Studies were approved by the Institutional Animal Care and Use Committee of Virginia Commonwealth University.
Tail-Flick Test: Antinociception for pain mediated at the spinal level was assessed by the tail-flick method of D'Amour, F. E.; Smith, D. L., J. Pharmacol. Exp. Ther. 1941, 72, 74-79, incorporated herein by reference in its entirety. In brief, mice were lightly restrained while a radiant heat source was shone onto the upper portion of the tail. To minimize tissue damage, a maximum latency of 10 s was imposed. Latency to remove the tail from the heat source was recorded for each animal. […] Antinociceptive response was calculated as the percentage of maximum possible effect (% MPE), where % MPE=[(test control)/(10 control)]×100.

[2] = system: Male Institute of Cancer Research (ICR) mice; assay: Hot-plate test, blockade of nicotine-induced antinociception; type: in vivo; details: pretreatment 15 min before nicotine 2.5 mg/kg s.c., tested 5 min after nicotine; for ED50: Mus musculus, read-out: AD50 Hot-plate
Text: as §1
Hot-Plate Test: Mice were placed into a 10-cm wide glass cylinder on a hot plate (Thermojust Apparatus) maintained at 55° C. for assessment of pain responses mediated at supraspinal levels. To minimize tissue damage, a maximum exposure to the hot plate 40 s was imposed. Measures of control latencies (time until the animal jumped or licked its paws; typically 8-12 s) were done twice for stimuli applied at least 10 min apart for each mouse. Antinociceptive responses after test drug administrations were determined and calculated as the % MPE, where % MPE=[(test latency in s−control latency in s)/(40 s−control latency in s)×100]. Groups of 8 to 12 animals were used for each drug condition. […] The animals were then tested 5 min after administration of a subcutaneous dose of 2.5 mg/kg nicotine.

[3] = system: Male Institute of Cancer Research (ICR) mice; assay: Body temperature, antagonism of nicotine-induced hypothermia; type: in vivo; details: pretreatment 15 min before nicotine 2.5 mg/kg s.c., tested 30 min after nicotine
Description: as §1
Body Temperature: Rectal temperature was measured by a thermistor probe (inserted 24 mm) and digital thermometer (YSI Inc., Yellow Springs, Ohio). Readings were taken just before and 30 min after subcutaneous injection of either saline or 2.5 mg/kg nicotine. The difference in rectal temperature before and after treatment was calculated for each mouse. The ambient temperature of the laboratory varied from 21 to 24° C. from day to day. […] The animals were then tested 30 min after administration of a subcutaneous dose of 2.5 mg/kg nicotine.

[4] = molecular target: T1, human DA transporters [(h)DAT] (Homo sapiens, UniProt Q01959); assay: Inhibition of [3H]dopamine uptake into HEK293 cells stably expressing hDAT; type: cell-based
T1 construct: expressed in transfected cells; host or cells: HEK-293
Text: (§2) Cell Lines and Culture: Human embryonic kidney (HEK-293) cells stably expressing human DAT, NET or SERT were maintained as previously described in Eshleman, A. J.; Carmolli, M.; Cumbay, M.; Martens, C. R.; Neve, K. A.; Janowsky, A., J. Pharmacol. Exp. Ther. 1999, 289, (2), 877-885. Use was made of several human cell lines that naturally or heterologously express specific, functional, human nAChR subtypes. Cells of the TE671/RD line naturally expresses muscle-type nAChR (a1β1γδ- or α1*-nAChR), and SH-SY5Y neuroblastoma cells naturally expresses autonomic α3β4*-nAChRs (containing α3, β4, probably α5, and sometimes β2 subunits). Different clones of SH-EP1 epithelial cell lines have been engineered to heterologously express either α4β2-nAChR, which are thought to be the most abundant, high affinity nicotine-binding nAChR in mammalian brain, or α4β4-nAChR, another possible brain nAChR subtype (SH-EP1-hα4β2 or α4β4 cells, respectively). These cells were maintained as low passage number (1-26 from our frozen stocks) cultures to ensure stable expression of native or heterologously-expressed nAChR as previously described (see Lukas, R. J.; Fryer, J. D.; Eaton, J. B.; L., G. C., Some methods for studies of nicotinic acetylcholine receptor pharmacology, in Nicotinic receptors and the Nervous System, Levine, E. D., Ed. CRC Press: Boca Raton, 2002; pp 3-27, incorporated herein by reference in its entirety). Cells were passaged once weekly by splitting just-confluent cultures 1/300 (TE671/RD), 1/5 (SH-SY5Y), or 1/20 (transfected SH-EP1) in serum-supplemented medium to maintain log-phase growth.
(§3) See, for example, Damaj, M. I.; Carroll, F. I.; Eaton, J. B.; Navarro, H. A.; Blough, B. E.; Mirza, S.; Lukas, R. J.; Martin, B. R., Mol. Pharmacol. 2004, 66, (3), 675-682 and Eshleman, A. J.; Carmolli, M.; Cumbay, M.; Martens, C. R.; Neve, K. A.; Janowsky, A., J. Pharmacol. Exp. Ther. 1999, 289, (2), 877-885, both incorporated by reference herein in their entireties.

NE transporters [h(NET)] = molecular target: T2, NE transporters [h(NET)] (Homo sapiens, UniProt P23975); assay: Inhibition of [3H]norepinephrine uptake into HEK293 cells stably expressing hNET; type: cell-based; details: HEK293-hNET; mean ± standard error of three independent experiments; read-out: monoamine uptake inhibition IC50 [3H]NE
T2 construct: expressed in transfected cells; host or cells: HEK-293
Text: as §2, §3

[5] = molecular target: T3, 5HT transporters [(h)SERT] (Homo sapiens, UniProt P31645); assay: Inhibition of [3H]serotonin uptake into HEK293 cells stably expressing hSERT; type: cell-based
T3 construct: expressed in transfected cells; host or cells: HEK-293
Text: as §2, §3

α4β2-nAChR = molecular target: T4, α4β2-nAChR (Homo sapiens, UniProt P17787+P43681); assay: 86Rb+ efflux nAChR functional assay, SH-EP1-hα4β2 cells; type: cell-based; details: EC80-EC90 carbamylcholine; SH-EP1-hα4β2; parentheses = S.E.M. as multiplication/division factor; read-out: nAChR inhibition IC50 α4β2
T4 construct: expressed in transfected cells; host or cells: SH-EP1 epithelial cells (SH-EP1-hα4β2)
Text: as §2
(§4) After cells had adhered (generally overnight, but no sooner than 4 h later), the medium was removed and replaced with 250 μL per well of complete medium supplemented with ˜350,000 cpm of ^86Rb^+ (PerkinElmer Life and Analytical Sciences, Boston, Mass.) and counted at 40% efficiency using Cerenkov counting (TriCarb 1900 liquid scintillation analyzer[…]; PerkinElmer Life Sciences).
(§5) After at least 4 h and typically overnight, ^86Rb^+ efflux was measured using the “flip-plate” technique. See Lukas, R. J.; Fryer, J. D.; Eaton, J. B.; L., G. C., Some methods for studies of nicotinic acetylcholine receptor pharmacology, in Nicotinic receptors and the Nervous System, Levine, E. D., Ed. CRC Press: Boca Raton, 2002; pp 3-27, incorporated herein by reference in its entirety). Briefly, after aspiration of the bulk of ^86Rb^+ loading medium from each well of the “cell plate,” each well containing cells was rinsed 3× with 2 mL of fresh ^86Rb^+ efflux buffer (130 mM NaCl, 5.4 mM KCl, 2 mM CaCl2, 5 mM glucose, 50 mM HEPES, pH 7.4) to remove extracellular ^86Rb^+. Following removal of residual rinse buffer by aspiration, the flip-plate technique was used again to simultaneously introduce 1.5 mL of fresh efflux buffer containing drugs of choice at indicated final concentrations from a 24-well “efflux/drug plate” into the wells of the cell plate. After a 5 min incubation, the solution was “flipped” back into the efflux/drug plate, and any remaining buffer in the cell plate was removed by aspiration. Cells remaining in the cell plate were lysed and suspended by addition of 1.5 mL of 0.1 M NaOH, 0.1% sodium dodecyl sulfate to each well.
(§6) Similarly, the sum of ^86Rb^+ in cell plates and efflux/drug plates also determined the efficiency of ^86Rb^+ loading (the percentage of applied ^86Rb^+ actually loaded into cells).
(§7) Specific efflux was then taken as the difference in control samples between total and non-specific ^86Rb^+ efflux. Any intrinsic agonist activity of test drugs was ascertained using samples containing test drug only at different concentrations and was normalized, after subtraction of non-specific efflux, to specific efflux in test drug-free, control samples.

α4β4-nAChR = molecular target: T5, α4β4-nAChR (Homo sapiens, UniProt P30926+P43681); assay: 86Rb+ efflux nAChR functional assay, SH-EP1-hα4β4 cells; type: cell-based; details: EC80-EC90 carbamylcholine, parentheses = S.E.M. as multiplication/division factor, read-out: nAChR inhibition IC50 α4β4
T5 construct: expressed in transfected cells; host or cells: SH-EP1 epithelial cells (SH-EP1-hα4β4)
Text: as §2, §4, §5, §6, §7

[6] = molecular target: T6, muscle-type nAChR (α1β1γδ- or α1*-nAChR) (Homo sapiens, UniProt P02708+P07510+P11230+Q07001); assay: 86Rb+ efflux nAChR functional assay, TE671/RD cells; type: cell-based; details: nAChR inhibition IC50 α1*β1, EC80-EC90 carbamylcholine, parentheses = S.E.M. as multiplication/division factor
T6 construct: Cells of the TE671/RD line naturally expresses muscle-type nAChR; endogenous in cells; host or cells: TE671/RD cells
Text: as §2, §4, §5, §6, §7

[7] = system: Male Institute of Cancer Research (ICR) mice; assay: Locomotor activity, antagonism of nicotine effect; type: in vivo; details: for AD50 Locomotion: pretreatment 15 min before nicotine […] s.c.
Text: as §1
Locomotor Activity: Mice were placed into individual Omnitech photocell activity cages (28×16.5 cm; Omnitech Electronics, Columbus, Ohio) 5 min after subcutaneous administration of either 0.9% saline or nicotine (1.5 mg/kg). Interruptions of the photocell beams (two banks of eight cells each) were then recorded for the next 10 min. Data were expressed as the number of photocell interruptions.

T2 sequence (P23975 whole entry): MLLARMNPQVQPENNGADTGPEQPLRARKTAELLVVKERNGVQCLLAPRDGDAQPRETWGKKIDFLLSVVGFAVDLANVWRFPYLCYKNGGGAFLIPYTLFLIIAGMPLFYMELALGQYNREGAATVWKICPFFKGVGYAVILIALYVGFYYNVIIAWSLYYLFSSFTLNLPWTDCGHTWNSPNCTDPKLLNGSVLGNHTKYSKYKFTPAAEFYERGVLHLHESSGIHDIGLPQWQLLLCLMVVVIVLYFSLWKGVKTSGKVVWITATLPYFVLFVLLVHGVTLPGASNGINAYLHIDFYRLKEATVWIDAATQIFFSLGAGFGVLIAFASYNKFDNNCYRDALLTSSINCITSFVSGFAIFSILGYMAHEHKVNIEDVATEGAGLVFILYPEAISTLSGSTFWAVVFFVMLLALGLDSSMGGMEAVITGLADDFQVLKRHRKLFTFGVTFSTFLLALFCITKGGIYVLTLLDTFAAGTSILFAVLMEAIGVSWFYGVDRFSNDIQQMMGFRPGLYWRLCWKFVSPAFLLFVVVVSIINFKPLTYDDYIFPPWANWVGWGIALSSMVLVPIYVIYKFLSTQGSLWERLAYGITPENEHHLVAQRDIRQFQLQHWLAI
T1 sequence (Q01959 whole entry): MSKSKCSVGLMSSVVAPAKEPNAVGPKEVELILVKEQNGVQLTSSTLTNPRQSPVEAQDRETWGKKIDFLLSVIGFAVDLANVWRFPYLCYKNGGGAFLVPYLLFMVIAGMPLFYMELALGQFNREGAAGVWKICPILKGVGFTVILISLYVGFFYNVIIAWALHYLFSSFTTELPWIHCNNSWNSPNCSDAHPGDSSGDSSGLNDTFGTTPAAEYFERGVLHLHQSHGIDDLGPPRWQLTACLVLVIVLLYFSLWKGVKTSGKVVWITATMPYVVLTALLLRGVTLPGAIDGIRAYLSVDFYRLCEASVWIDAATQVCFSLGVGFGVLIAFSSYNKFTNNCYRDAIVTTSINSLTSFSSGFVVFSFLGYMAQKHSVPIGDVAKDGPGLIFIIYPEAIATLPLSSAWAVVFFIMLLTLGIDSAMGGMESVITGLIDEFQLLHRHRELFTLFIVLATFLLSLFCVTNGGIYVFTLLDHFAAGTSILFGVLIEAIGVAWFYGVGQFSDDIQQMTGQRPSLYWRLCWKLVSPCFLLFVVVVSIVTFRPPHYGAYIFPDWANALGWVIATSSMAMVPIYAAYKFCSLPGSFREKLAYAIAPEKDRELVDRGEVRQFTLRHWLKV
T5 sequence (P43681 29-627 limits assumed): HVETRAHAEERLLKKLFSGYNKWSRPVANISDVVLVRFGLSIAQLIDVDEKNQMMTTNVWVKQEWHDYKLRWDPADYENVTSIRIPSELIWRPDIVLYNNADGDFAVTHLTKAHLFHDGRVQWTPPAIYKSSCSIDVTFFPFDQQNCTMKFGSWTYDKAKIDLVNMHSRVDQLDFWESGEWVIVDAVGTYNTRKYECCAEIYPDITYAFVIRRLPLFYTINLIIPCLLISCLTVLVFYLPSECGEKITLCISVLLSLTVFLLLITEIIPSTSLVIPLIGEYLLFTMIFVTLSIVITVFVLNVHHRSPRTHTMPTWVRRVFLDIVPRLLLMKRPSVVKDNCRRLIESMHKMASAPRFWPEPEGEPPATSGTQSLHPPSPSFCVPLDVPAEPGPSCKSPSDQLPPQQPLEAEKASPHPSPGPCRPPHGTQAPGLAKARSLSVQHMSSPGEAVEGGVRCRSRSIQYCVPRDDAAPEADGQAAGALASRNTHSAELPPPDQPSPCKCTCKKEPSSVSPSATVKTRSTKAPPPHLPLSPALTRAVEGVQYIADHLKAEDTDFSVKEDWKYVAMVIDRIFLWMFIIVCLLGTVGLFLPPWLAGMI
T5 sequence (P30926 22-498): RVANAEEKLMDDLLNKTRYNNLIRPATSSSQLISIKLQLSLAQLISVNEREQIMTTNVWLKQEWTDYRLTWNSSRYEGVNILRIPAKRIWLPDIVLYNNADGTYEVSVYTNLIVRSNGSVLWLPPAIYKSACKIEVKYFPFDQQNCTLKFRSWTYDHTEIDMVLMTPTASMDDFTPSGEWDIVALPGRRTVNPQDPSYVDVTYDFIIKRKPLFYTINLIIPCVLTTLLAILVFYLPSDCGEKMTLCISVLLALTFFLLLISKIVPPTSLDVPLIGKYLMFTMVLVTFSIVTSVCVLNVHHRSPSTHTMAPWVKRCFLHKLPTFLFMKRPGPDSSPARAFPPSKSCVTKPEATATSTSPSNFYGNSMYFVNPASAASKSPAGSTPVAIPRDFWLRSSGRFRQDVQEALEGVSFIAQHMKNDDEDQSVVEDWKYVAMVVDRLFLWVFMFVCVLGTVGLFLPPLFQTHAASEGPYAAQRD
T4 sequence (P43681 29-627 limits assumed): as the sequence (P43681 29-627 limits assumed) above
T4 sequence (P17787 26-502): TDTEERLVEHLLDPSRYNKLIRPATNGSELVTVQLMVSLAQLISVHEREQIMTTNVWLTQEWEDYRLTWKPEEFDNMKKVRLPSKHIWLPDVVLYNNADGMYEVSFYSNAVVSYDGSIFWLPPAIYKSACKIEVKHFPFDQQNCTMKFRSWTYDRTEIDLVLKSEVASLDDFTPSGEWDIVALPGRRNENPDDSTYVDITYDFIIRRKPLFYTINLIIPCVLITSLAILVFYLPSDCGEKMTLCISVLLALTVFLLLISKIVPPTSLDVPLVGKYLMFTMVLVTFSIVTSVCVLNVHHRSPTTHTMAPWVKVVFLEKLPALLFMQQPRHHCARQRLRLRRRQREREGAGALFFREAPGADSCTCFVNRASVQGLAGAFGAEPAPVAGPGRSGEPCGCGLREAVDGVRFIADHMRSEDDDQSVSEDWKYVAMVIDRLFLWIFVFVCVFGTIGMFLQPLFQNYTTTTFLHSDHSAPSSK
T6 sequence (P02708 21-457): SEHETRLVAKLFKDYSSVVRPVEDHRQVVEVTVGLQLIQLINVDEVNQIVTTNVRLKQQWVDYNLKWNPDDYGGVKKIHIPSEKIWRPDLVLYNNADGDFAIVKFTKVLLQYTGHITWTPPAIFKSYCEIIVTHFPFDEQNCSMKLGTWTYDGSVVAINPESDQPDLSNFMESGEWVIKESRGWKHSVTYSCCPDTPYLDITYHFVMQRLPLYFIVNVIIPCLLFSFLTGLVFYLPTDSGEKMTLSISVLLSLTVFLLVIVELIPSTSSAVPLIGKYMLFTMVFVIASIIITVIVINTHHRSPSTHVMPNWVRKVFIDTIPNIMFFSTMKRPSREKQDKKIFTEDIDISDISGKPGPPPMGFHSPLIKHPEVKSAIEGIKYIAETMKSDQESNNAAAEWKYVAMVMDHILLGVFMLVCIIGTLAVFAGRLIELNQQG
T6 sequence (P11230 24-501): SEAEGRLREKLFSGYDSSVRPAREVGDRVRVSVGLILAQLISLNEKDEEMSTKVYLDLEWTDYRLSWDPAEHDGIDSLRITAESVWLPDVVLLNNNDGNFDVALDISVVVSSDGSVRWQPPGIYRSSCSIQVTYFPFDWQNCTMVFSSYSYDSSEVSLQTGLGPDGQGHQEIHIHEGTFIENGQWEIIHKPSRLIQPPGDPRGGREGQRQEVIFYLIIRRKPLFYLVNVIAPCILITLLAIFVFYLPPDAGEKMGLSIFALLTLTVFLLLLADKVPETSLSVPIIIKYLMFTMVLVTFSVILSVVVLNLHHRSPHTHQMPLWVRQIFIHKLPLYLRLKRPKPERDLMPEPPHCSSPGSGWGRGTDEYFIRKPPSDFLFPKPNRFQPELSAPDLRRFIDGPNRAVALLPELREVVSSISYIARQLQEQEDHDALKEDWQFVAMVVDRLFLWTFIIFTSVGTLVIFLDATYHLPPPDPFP
T6 sequence (P07510 23-517): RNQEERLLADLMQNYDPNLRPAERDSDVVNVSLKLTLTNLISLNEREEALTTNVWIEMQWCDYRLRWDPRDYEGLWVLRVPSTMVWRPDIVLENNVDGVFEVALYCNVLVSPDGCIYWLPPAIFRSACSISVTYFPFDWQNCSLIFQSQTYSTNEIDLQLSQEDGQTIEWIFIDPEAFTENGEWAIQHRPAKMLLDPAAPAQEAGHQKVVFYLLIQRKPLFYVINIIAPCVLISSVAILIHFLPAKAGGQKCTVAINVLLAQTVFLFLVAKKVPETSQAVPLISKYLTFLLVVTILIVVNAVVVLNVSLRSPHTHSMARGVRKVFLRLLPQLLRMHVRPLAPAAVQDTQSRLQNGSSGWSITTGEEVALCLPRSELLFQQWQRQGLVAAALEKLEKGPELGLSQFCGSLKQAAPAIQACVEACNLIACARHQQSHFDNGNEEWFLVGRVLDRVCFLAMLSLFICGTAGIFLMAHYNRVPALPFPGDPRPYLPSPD
T6 sequence (Q07001 22-517): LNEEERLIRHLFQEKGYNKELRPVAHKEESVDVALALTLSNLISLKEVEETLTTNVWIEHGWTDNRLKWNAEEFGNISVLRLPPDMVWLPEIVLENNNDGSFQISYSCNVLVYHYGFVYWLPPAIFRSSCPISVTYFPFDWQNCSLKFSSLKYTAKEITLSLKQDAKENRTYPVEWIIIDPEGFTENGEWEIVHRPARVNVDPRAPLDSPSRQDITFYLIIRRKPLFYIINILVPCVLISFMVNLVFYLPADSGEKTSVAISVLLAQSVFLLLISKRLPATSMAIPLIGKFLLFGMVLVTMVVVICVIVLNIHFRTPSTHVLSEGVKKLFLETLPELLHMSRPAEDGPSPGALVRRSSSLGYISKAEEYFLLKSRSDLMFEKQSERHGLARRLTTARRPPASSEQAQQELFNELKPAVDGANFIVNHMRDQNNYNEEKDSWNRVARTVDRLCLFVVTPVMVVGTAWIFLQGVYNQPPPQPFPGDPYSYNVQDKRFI

## CC(NC(C)(C)C)C(=O)c1cccc(Cl)c1 (racemic) [Compound 2, (±)-2-tert-butylamino-3′-chloropropiophenone, reference compound]
[1]
  ED50: 1.2 mg/kg
  AD50 Tail-flick: 1.2 mg/kg
[2]
  ED50: 15 mg/kg
  AD50 Hot-plate: 15 mg/kg
[3]; Mus musculus, 0.5 h, read-out: AD50 Hypothermia
  ED50: 9.2 mg/kg
[3]
  AD50 Hypothermia: 9.2 mg/kg

## CC1NC(C)(C)COC1(O)c1cccnc1 (racemic) [Compound 5, 3,5,5-Trimethyl-2-(pyridin-3-yl)morpholin-2-ol]
[4]; HEK293-hDAT, mean ± standard error of three independent experiments, read-out: monoamine uptake inhibition IC50 [3H]DA
  IC50: > 10 µM
NE transporters [h(NET)]
  IC50: > 10 µM
[5]
  IC50: > 10 µM
α4β2-nAChR
  IC50: > 100 µM
α4β4-nAChR
  IC50: > 100 µM
[6]
  IC50: > 100 µM

## CC1NC(C)(C)COC1(O)c1ccccn1 (racemic) [Compound 6, 3,5,5-Trimethyl-2-(pyridin-2-yl)morpholin-2-ol]
[4]
  IC50: > 10 µM
NE transporters [h(NET)]
  IC50: 7.95 ± 1.8 µM
[5]; HEK293-hSERT, mean ± standard error of three independent experiments, read-out: monoamine uptake inhibition IC50 [3H]5HT
  IC50: > 10 µM
α4β2-nAChR
  IC50: > 100 µM
α4β4-nAChR
  IC50: > 100 µM
[6]
  IC50: > 100 µM

## CCC[C@@H]1NC(C)(C)CO[C@@]1(O)c1cccc(Cl)c1 [Compound 4t, (2S,3S)-2-(3-Chlorophenyl)-5,5-dimethyl-3-propyl-morpholin-2-ol]
[1]
  ED50: 0.004 mg/kg
[2]
  AD50 Hot-plate: IA (IA: AD50 > 15 mg/kg)
[7]
  AD50 Locomotion: 4.7 mg/kg
[3]
  AD50 Hypothermia: IA (IA: AD50 > 15 mg/kg)

## C[C@H]1NC(C)(C)CO[C@]1(O)c1cccc(Cl)c1 [Compound (2R,3R)-4a, (2R,3R)-2-(3-Chlorophenyl)-3,5,5-trimethylmorpholin-2-ol, reference compound]
[1]
  ED50: 2.5 mg/kg
[2]
  ED50: 10.3 mg/kg
[7]
  AD50 Locomotion: IA (IA: AD50 > 15 mg/kg)
[3]
  AD50 Hypothermia: IA (IA: AD50 > 15 mg/kg)

## C[C@@H]1NC(C)(C)CO[C@@]1(O)c1cccc(Cl)c1 [Compound (2S,3S)-4a, (2S,3S)-2-(3-Chlorophenyl)-3,5,5-trimethylmorpholin-2-ol, reference compound]
[1]
  ED50: 0.2 mg/kg
[2]
  ED50: 1 mg/kg
  AD50 Hot-plate: 1 mg/kg
[7]; Mus musculus, pretreatment 15 min before nicotine 1.5 mg/kg s.c., read-out: AD50 Locomotion
  ED50: 0.9 mg/kg
[7]
  AD50 Locomotion: 0.9 mg/kg
